Like-named read-outs stand apart in the source and are kept apart here.
Legend:
[1] = molecular target: human 5-HT2A receptor (Homo sapiens, UniProt P28223); assay: 5-HT2A receptor binding assay ([3H]-ketanserin radioligand)
Description: (§1) Preparation of Solutions of Test and Reference Compounds.
(§2) 1 mM stock solutions of tested compounds were prepared in DMSO. Serial dilutions of compounds were prepared in 96-well microplate in assay buffers using automated pipetting system epMotion 5070 (Eppendorf). Each compound was tested in 10 concentrations from 1.0E-6 to 1.0E-11 M (final concentration).
5-HT2A Receptor Binding Assay.
Radioligand binding was performed using membranes from CHO K1 cells stably transfected with the human 5-HT2A receptor (PerkinElmer). All assays were carried out in duplicates. 50 μl working solution of the tested compounds, 50 μl [3H]-ketanserin (final concentration 1 nM) and 150 μl diluted membranes (7 μg protein per well) prepared in assay buffer (50 mM Tris, pH 7.4, 4 mM CaCl2, 0.1% ascorbic acid) were transferred to polypropylene 96-well microplate using 96-wells pipetting station Rainin Liquidator (MettlerToledo). Mianserin (10 μM) was used to define nonspecific binding. Microplate was covered with a sealing tape, mixed and incubated for 60 minutes at 27° C. The reaction was terminated by rapid filtration through GF/B filter mate presoaked with 0.5% polyethyleneimine for 30 minutes. Ten rapid washes with 200 μl 50 mM Tris buffer (4° C., pH 7.4) were performed using automated harvester system Harvester-96 MACH III FM (Tomtec). The filter mates were dried at 37° C. in forced air fan incubator and then solid scintilator MeltiLex was melted on filter mates at 90° C. for 5 minutes. Radioactivity was counted in MicroBeta2 scintillation counter (PerkinElmer). Data were fitted to a one-site curve-fitting equation with Prism 6 (GraphPad Software) and Ki values were estimated from the Cheng-Prusoff equation.

[2] = molecular target: 5-HT6 receptors (Homo sapiens, UniProt P50406); assay: 5-HT6 receptor binding assay ([3H]-LSD radioligand); details: membranes from CHO-K1 cells with human 5-HT6 receptor, [3H]-LSD 1 nM
5-HT6 receptors, sequence (P50406 whole entry): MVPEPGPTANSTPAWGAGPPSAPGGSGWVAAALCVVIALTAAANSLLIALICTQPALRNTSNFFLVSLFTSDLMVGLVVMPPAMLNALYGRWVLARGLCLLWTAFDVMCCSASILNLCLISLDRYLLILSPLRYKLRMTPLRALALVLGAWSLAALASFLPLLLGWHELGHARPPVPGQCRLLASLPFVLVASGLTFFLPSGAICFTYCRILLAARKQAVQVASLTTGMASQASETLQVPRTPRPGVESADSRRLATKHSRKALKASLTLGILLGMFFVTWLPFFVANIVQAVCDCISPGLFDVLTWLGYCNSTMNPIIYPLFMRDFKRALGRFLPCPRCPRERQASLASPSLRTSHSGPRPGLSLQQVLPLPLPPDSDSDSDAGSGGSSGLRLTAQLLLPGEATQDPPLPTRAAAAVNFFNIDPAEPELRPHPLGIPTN
Description: as §1, §2
5-HT6 Receptor Binding Assay.
Radioligand binding was performed using membranes from CHO-K1 cells stably transfected with the human 5-HT6 receptor (PerkinElmer). All assays were carried out in duplicates. 50 μl working solution of the tested compounds, 50 μl [3H]-LSD (final concentration 1 nM) and 150 μl diluted membranes (8 μg protein per well) prepared in assay buffer (50 mM Tris, pH 7.4, 10 mM MgCl2, 0.1 mM EDTA) were transferred to polypropylene 96 well microplate using 96-wells pipetting station Rainin Liquidator (MettlerToledo). Methiothepin (10 μM) was used to define nonspecific binding. Microplate was covered with a sealing tape, mixed and incubated for 60 minutes at 37° C. The reaction was terminated by rapid filtration through GF/A filter mate presoaked with 0.5% polyethyleneimine for 30 minutes. Ten rapid washes with 200 μl 50 mM Tris buffer (4° C., pH 7.4) were performed using automated harvester system Harvester-96 MACH III FM (Tomtec). The filter mates were dried at 37° C. in forced air fan incubator and then solid scintilator MeltiLex was melted on filter mates at 90° C. for 5 minutes. Radioactivity was counted in MicroBeta2 scintillation counter (PerkinElmer). Data were fitted to a one-site curve-fitting equation with Prism 6 (GraphPad Software) and Ki values were estimated from the Cheng-Prusoff equation.

[3] = molecular target: human GPCR 5-HT6 (Homo sapiens, UniProt P50406); assay: Cellular aequorin-based functional assay, 5-HT6; format: cell-based; details: for 5-HT6 AGO EC50 [nM]: agonist mode, CHO-K1 aequorin cells; for Kb: antagonist mode, reference agonist serotonin 40 nM (EC80), read-out: 5-HT6 ANT Kb
human GPCR 5-HT6, sequence (P50406 whole entry): as above
Description: as §1
(§3) 1 mM stock solutions of the tested compounds were prepared in DMSO. Serial dilutions were prepared in 96-well microplate in assay buffers using automated pipetting system epMotion 5070 (Eppendorf). Two independent experiments in duplicates were performed and 6 to 10 concentrations were tested.
(§4) 5-HT2A and 5-HT6 Functional Activity Assays.
(§5) Cellular aequorin-based functional assays were performed with γ-irradiated recombinant CHO-K1 cells expressing mitochondrially-targeted Aequorin, human GPCR (5-HT2A or 5-HT6) and the promiscuous G protein α16 (PerkinElemer). Assays were performed according to the standard protocol provided by the manufacturer. After thawing, cells were transferred to assay buffer (DMEM/HAM's F12 with 0.1% protease-free BSA) and centrifuged. Cell pellet was resuspended in assay buffer and coelenterazine h was added at final concentrations of 5 μM. Cell suspension was incubated at 21° C., protected from light with constant agitation, for 4 hours and then diluted with assay buffer to a concentration of 250,000 cells/ml. After 1 hour incubation 50 yl cell suspension was dispensed using automatic injectors built in radiometric and luminescence plate counter MicroBeta2 LumiJET (PerkinElmer, USA) into white opaque 96-well microplate preloaded with tested compounds. Immediate light emission generated following calcium mobilization was recorded for 30-60 seconds. In antagonist mode, after 15-30 minutes incubation reference agonist was added to the above assay mix and light emission was recorded again. Final concentration of reference agonist was equal EC80: serotonin 40 nM for 5-HT6 receptor and α-methylserotonin 30 nM for 5-HT2A receptor. The assays were performed in the agonist mode (5-HT6 AGO and 5-HT2A AGO) as well as antagonist mode (5-HT6 ANT and 5-HT2A ANT).
(§6) IC50 and EC50 were determined by non-linear regression analysis using GraphPad Prism 6.0 software. The log IC50 was used to obtain the Kb by applying the Cheng-Prusoff approximation.

[4] = molecular target: human GPCR 5-HT2A (Homo sapiens, UniProt P28223); assay: Cellular aequorin-based functional assay, 5-HT2A; format: cell-based; details: for 5-HT2A AGO EC50 [nM]: agonist mode, CHO-K1 aequorin cells
human GPCR 5-HT2A, sequence (P28223 whole entry): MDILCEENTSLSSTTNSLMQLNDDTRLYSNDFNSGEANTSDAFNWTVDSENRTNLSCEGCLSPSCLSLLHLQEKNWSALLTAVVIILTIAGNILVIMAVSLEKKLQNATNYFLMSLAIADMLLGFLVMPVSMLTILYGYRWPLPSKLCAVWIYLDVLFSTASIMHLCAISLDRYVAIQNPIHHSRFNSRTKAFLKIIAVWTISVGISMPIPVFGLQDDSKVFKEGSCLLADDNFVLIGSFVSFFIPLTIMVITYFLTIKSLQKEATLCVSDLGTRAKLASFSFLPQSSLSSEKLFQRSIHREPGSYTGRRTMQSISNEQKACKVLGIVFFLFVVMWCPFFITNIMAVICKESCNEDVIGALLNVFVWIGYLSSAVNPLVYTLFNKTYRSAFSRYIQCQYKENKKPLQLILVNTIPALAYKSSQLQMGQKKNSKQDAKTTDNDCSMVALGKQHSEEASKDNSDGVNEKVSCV
Description: as §1, §3, §4, §5, §6

[5] = membranes from CHO K1 cells with human 5-HT2A receptor, [3H]-ketanserin 1 nM, read-out: 5-HT2A Ki
[6] = antagonist mode, reference agonist α-methylserotonin 30 nM (EC80), read-out: 5-HT2A ANT Kb

human 5-HT2A receptor, sequence (P28223 whole entry): as above

Row | Compound | Ki [1, 5] | Ki [2] | 5-HT6 AGO EC50 [nM] [3] | Kb [3] | 5-HT2A AGO EC50 [nM] [4] | Kb [4, 6] | Kb [4] | Ki [1]
1 | CN1CCN(c2cccc3c2nc(C(F)(F)F)n3Cc2ccccc2)CC1 [Compound 2, 1-benzyl-4-(4-methylpiperazin-1-yl)-2-(trifluoromethyl)-1H-benzimidazole] | 3.1 nM | 2.2 nM |  |  |  |  |  | 
2 | FC(F)(F)c1nc2c(N3CCNCC3)cccc2n1Cc1cccc(Cl)c1 [Compound 6, 1-(3-chlorobenzyl)-4-(piperazin-1-yl)-2-(trifluoromethyl)-1H-benzimidazole] | 3.8 nM | 1.7 nM |  |  |  |  |  | 
3 | Fc1cccc(Cn2c(C(F)(F)F)nc3c(N4CCNCC4)cccc32)c1 [Compound 7, 1-(3-fluorobenzyl)-4-(piperazin-1-yl)-2-(trifluoromethyl)-1H-benzimidazole] | 2.9 nM | 1.6 nM | N.C. | 1.9 nM | N.C. | 22 nM |  | 
4 | FC(F)(F)c1nc2c(N3CCNCC3)cccc2n1Cc1ccc(Cl)c(Cl)c1 [Compound 8, 1-(3,4-dichlorobenzyl)-4-(piperazin-1-yl)-2-(trifluoromethyl)-1H-benzo[d]imidazole] | 2.9 nM | 2 nM |  |  |  |  |  | 
5 | FC(F)(F)c1cc2c(N3CCNCC3)cccc2n1Cc1ccccc1 [Compound 12, 1-benzyl-4-(piperazin-1-yl)-2-(trifluoromethyl)-1H-indole] |  | 0.29 nM | N.C. | 0.49 nM | N.C. |  | 31 nM | 2.1 nM
6 | CN1CCN(c2cccc3c2cc(C(F)(F)F)n3Cc2ccc(Cl)c(Cl)c2)CC1 [Compound 13, 1-(3,4-dichlorobenzyl)-4-(4-methylpiperazin-1-yl)-2-(trifluoromethyl)-1H-indole] | 2.6 nM | 0.98 nM | N.C. | 9.1 nM | N.C. |  |  | 
7 | CN1CCN(c2cccc3c2cc(C(F)(F)F)n3Cc2ccc(Cl)c(F)c2)CC1 [Compound 14, 1-(4-chloro-3-fluorobenzyl)-4-(4-methylpiperazin-1-yl)-2-(trifluoromethyl)-1H-indole] | 0.39 nM | 0.65 nM | N.C. | 5.5 nM | N.C. | 59 nM |  | 
8 | Fc1cc(Cn2c(C(F)(F)F)cc3c(N4CCNCC4)cccc32)ccc1Cl [Compound 16, 1-(4-chloro-3-fluorobenzyl)-4-(piperazin-1-yl)-2-(trifluoromethyl)-1H-indole] | 0.82 nM | 0.62 nM | N.C. | 4.4 nM | N.C. | 55 nM |  | 
9 | COc1cccc(Cn2c(C(F)(F)F)cc3c(N4CCN(C)CC4)cccc32)c1 [Compound 18, 1-(3-methoxybenzyl)-4-(4-methylpiperazin-1-yl)-2-(trifluoromethyl)-1H-indole] | 4.2 nM | 0.27 nM |  |  |  |  |  | 
10 | Fc1cccc(Cn2c(C(F)(F)F)cc3c(N4CCNCC4)cccc32)c1 [Compound 19, 1-(3-fluorobenzyl)-4-(piperazin-1-yl)-2-(trifluoromethyl)-1H-indole] |  | 0.35 nM | N.C. | 0.14 nM | N.C. |  | 21 nM | 1.3 nM
11 | FC(F)(F)c1cc2c(N3CCNCC3)cccc2n1Cc1cccc(Cl)c1 [Compound 20, 1-(3-chloroobenzyl)-4-(piperazin-1-yl)-2-(trifluoromethyl)-1H-indole] |  |  | N.C. | 1.2 nM | N.C. |  | 53 nM | 2.2 nM
12 | CN1CCN(c2cccc3c2cc(C(F)(F)F)n3Cc2ccco2)CC1 [Compound 21, 1-(furan-2-ylmethyl)-4-(4-methylpiperazin-1-yl)-2-(trifluoromethyl)-1H-indole] |  | 0.18 nM | N.C. | 0.27 nM | N.C. | 4.3 nM |  | 
13 | CN1CCN(c2cccc3c2cc(C(F)(F)F)n3Cc2ccc(F)c(F)c2)CC1 [Compound 22, 1-(3,4-difluorobenzyl)-4-(4-methylpiperazin-1-yl)-2-(trifluoromethyl)-1H-indole] | 0.45 nM |  | N.C. | 4.8 nM | N.C. | 26 nM |  | 
14 | COc1cccc(Cn2c(C(F)(F)F)cc3c(N4CCNCC4)cccc32)c1 [Compound 23, 1-(3-methoxybenzyl)-4-(piperazin-1-yl)-2-(trifluoromethyl)-1H-indole] |  |  | N.C. | 0.26 nM | N.C. | 28 nM |  | 
15 | CN1CCN(c2cccc3c2cc(C(F)(F)F)n3Cc2cccc(F)c2)CC1 [Compound 24, 1-[(3-fluorophenyl)methyl]-4-(4-methylpiperazin-1-yl)-2-(trifluoromethyl)-1H-indole] | 0.73 nM | 0.092 nM | N.C. | 1.1 nM | N.C. | 28 nM |  | 
16 | Fc1ccc(Cn2c(C(F)(F)F)cc3c(N4CCNCC4)cccc32)cc1F [Compound 25, 1-(3,4-difluorobenzyl)-4-(piperazin-1-yl)-2-(trifluoromethyl)-1H-indole] | 0.71 nM | 0.37 nM | N.C. | 0.65 nM | N.C. | 20 nM |  | 
17 | CN1CCN(c2cccc3c2cc(C(F)(F)F)n3Cc2ccccc2)CC1 [Compound 26, 1-benzyl-4-(4-methylpiperazin-1-yl)-2-(trifluoromethyl)-1H-indole] | 0.91 nM | 0.087 nM |  |  |  |  |  | 
18 | CN1CCN(c2cccc3c2cc(C(F)(F)F)n3Cc2cccc(Cl)c2)CC1 [Compound 27, 1-(3-chlorobenzyl)-4-(4-methylpiperazin-1-yl)-2-(trifluoromethyl)-1H-indole] |  |  | N.C. | 0.31 nM | N.C. | 56 nM |  | 
19 | Cc1ccc(Cn2c(C(F)(F)F)cc3c(N4CCNCC4)cccc32)o1 [Compound 28, 1-[(5-methylfuran-2-yl)methyl]-4-(piperazin-1-yl)-2-(trifluoromethyl)-1H-indole] |  | 4 nM | N.C. | 0.25 nM | N.C. |  | 16 nM | 0.48 nM

Reference: patent US20200377496A1, “INDOLE AND BENZIMIDAZOLE DERIVATIVES AS DUAL 5-HT2A and 5-HT6 RECEPTOR ANTAGONISTS” (ADAMED PHARMA, S.A., priority 2018, published 2020)
